Among the data in paper PMC6478789, “A chemical toolbox for the study of bromodomains and epigenetic signaling” (Nature Communications, 2019) are Kd values, retold here.

Read-outs that look alike come from different tables or passages of the source.

Among the targets are WDR9(2) (Homo sapiens, UniProt Q9NSI6); BRD2(1,2) (Homo sapiens, UniProt P25440); BRD4(fl) (Homo sapiens, UniProt O60885); PBRM1(2) (Homo sapiens, UniProt Q86U86).
Common to all, as to assay: BROMOscan ligand-binding assay
The target in a further assay is T1, BAZ2B (Homo sapiens, UniProt Q9UIF8).
T1 sequence (Q9UIF8 2060-2164 limits assumed): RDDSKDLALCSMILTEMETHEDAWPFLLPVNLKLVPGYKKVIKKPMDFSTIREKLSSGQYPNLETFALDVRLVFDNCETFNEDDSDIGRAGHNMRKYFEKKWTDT

Chain of WDR9(2) (Q9NSI6 1313-1418 limits assumed): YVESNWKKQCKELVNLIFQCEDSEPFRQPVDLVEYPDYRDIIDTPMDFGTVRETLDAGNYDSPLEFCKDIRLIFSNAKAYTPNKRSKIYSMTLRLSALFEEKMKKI
Chain of BRD2(1,2) (P25440 71-455 limits assumed): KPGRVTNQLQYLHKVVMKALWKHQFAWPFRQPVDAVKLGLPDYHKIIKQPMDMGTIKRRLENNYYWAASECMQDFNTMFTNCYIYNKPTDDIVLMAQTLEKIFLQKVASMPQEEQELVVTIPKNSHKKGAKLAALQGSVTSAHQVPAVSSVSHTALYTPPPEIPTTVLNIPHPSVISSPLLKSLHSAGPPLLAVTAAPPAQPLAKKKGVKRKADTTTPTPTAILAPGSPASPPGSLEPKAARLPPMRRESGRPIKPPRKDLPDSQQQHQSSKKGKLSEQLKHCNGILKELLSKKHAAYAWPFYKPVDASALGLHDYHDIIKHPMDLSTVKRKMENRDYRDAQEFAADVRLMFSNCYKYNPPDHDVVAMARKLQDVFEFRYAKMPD
Chain of PBRM1(2) (Q86U86 177-287 limits assumed): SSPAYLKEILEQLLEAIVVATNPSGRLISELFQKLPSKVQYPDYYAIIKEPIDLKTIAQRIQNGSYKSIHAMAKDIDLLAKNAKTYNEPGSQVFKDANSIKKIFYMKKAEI
From the text for BAZ2B: (§1) BROMOscan is a binding assay based on the well-known KINOMEscan technology. This assay measures the binding of a DNA-tagged bromodomain to an immobilized BRD ligand. If an inhibitor is present, it will compete with the bromodomain binding to the immobilized ligand, resulting in reduction of a quantitative PCR (qPCR) signal in a dose-dependent manner.
From the text for BRD2(1,2): as §1
From the text for BRD4(fl): as §1
From the text for PBRM1(2): as §1
From the text for WDR9(2): as §1

As for `CCCS(=O)(=O)c1nc(NC2CC2)cc(-c2ccc3c(ccn3C3CC(C)(C)NC(C)(C)C3)c2)n1` [NVS-CECR2-1], the Kd was 30 µM on WDR9(2); 16 µM on BRD2(1,2); 13 µM on BRD4(fl); > 30 µM at PBRM1(2); > 30 µM on BAZ2B.

On to `Cc1cc(=O)n(C)c2cc(N3C(=O)CC[C@H](NS(=O)(=O)CC(C)C)[C@H]3c3ccc(Cl)cc3)ccc12` [LP-99], for which the Kd on WDR9(2) (BROMOscan, WDR9(2)) was > 50 µM; at BRD2(1,2) (BROMOscan, BRD2(1,2)), 35 µM; on BRD4(fl) (BROMOscan, BRD4(full-length,short-iso.)) it was > 50 µM; on PBRM1(2) (BROMOscan, PBRM1(2)), > 50 µM; on BAZ2B (BAZ2B), > 50 µM.
